# Source: PMC3689638, “Cell cycle-dependent activity of the novel dual PI3K-MTORC1/2 inhibitor NVP-BGT226 in acute leukemia” (Molecular Cancer, 2013)
# pIC50: −log10 of the molar value. “Also recorded” adds a separate entry of the source.
# Columns and labels:
# [1] = test system: Ba/F3 FLT3 N841H; assay: Inhibition of proliferation (XTT), isogenic Ba/F3 model; assay type: cell-based, murine; conditions: Mus musculus; for pIC50: BaF3; for viability at 0.01 µM: BaF3, 10 nM, read-out: Inhibition of proliferation At 10 nM (% alive); for viability at 0.1 µM: BaF3, 100 nM, read-out: Inhibition of proliferation At 100 nM (% alive)
# [2] = test system: AKT phosphorylation (Ser473, Thr308); assay: western immunoblot of AKT signaling, MOLM14 or K562 cells; assay type: cell-based, human
# Source text: For comparative analysis, additional lysates from cells treated with an ABL1 or FLT3 tyrosine kinase inhibitor (imatinib for K562 BCR-ABL1 cells, sunitinib for MOLM14 FLT3 ITD cells) as well as rapamycin were used.
# Rabbit anti-panAKT, panFLT3, panABL1 or anti-cleaved caspase 3 antibodies were used at a 1:500 to 1:1000 dilution. Rabbit anti-phospho-AKT antibodies detecting phosphorylated isoforms of T308-AKT, S473-AKT, S807/811-RB, S575-ULK1, T389-p70S6K, Y694-STAT5, FLT3, ABL1 or T202/Y204-ERK1/2 were used at a 1:250 to 1:1000 dilution. An anti-actin mouse monoclonal antibody was used as a loading control. All antibodies, if not otherwise indicated, were purchased from Cell Signaling Technology.
# Cell pellets were lysed with 100 to 150 μl of protein lysis buffer (50 mmol/L Tris, 150 mmol/L NaCl, 1% NP40, 0.25% deoxycholate with added inhibitors aprotinin, AEBSF, leupeptin, pepstatin, sodium orthovanadate, and sodium pyruvate, respectively phosphatase inhibitor cocktails „2“ and „1“ or „3“ (Sigma, St. Louis, MO). Protein from cell lysates (75 to 200 μg protein) was used for whole cell protein analysis after denaturing by Western immunoblot assays using a BioRad Criterion system. Nonspecific binding was blocked by incubating the blots in nonfat dry milk or BSA. Primary antibodies were incubated for one hour or over night, followed by several washes of Tris-buffered saline (TBS) containing 0.005% Tween 20. The appropriate secondary antibody was applied for 30‘, followed by several washes. Antibody-reactive proteins were detected using a LI-COR Odyssey® fluorescence optical system.
# [3] = test system: MOLM14 cells; assay: cell cycle analysis by PI-stain flow cytometry, MOLM14; assay type: cell-based, human; conditions: 72h
# Method: (§1) Accumulation of cells in the G1/G0, S or G2/M phases was monitored 6, 24 and 72 hours after application of either agent.
# (§2) A propidium iodide-based flow cytometry assay was assessed as described previously. In short, a propidium iodide stain assay is used to segregate cells according to the DNA content, which is graphically shown in a histogram plot (high content in G2/M, intermediate content in S-phase, low content in G1/G0 and lowest content in dead/apoptotic cells, which defines a sub-G1/G0 fraction),
# [4] = test system: K562 cells; assay: cell cycle analysis by PI-stain flow cytometry, K562; assay type: cell-based, human; conditions: 72h
# Method: as §1, §2
# [5] = test system: Ba/F3 FLT3 D835Y; assay: Induction of apoptosis, isogenic Ba/F3 model; assay type: cell-based, murine
# Method: (§3) Translocation of phosphatidylserine from the inner to the outer leaflet of the plasma membrane as an early indicator of apoptosis was analyzed using an Annexin V-based assay (Immunotech, Marseilles, France) and a FACScalibur® flow cytometer loaded with CellQuest® analysis software (BD, Heidelberg, Germany).
# [6] = test system: Ba/F3 BCR/ABL1; assay: Induction of apoptosis, isogenic Ba/F3 model; assay type: cell-based, murine
# Method: as §3
# [7] = test system: Ba/F3 Parental (w/ IL3); assay: Induction of apoptosis, isogenic Ba/F3 model; assay type: cell-based, murine
# Method: as §3
# [8] = test system: Ba/F3 FLT3 K663Q; assay: Induction of apoptosis, isogenic Ba/F3 model; assay type: cell-based, murine
# Method: as §3
# [9] = test system: Ba/F3 FLT3 ITD; assay: Induction of apoptosis, isogenic Ba/F3 model; assay type: cell-based, murine; conditions: for pIC50: Mus musculus, not reached = > 5 000 nM
# Method: as §3
# [10] = test system: Ba/F3 FLT3 N841H; assay: Induction of apoptosis, isogenic Ba/F3 model; assay type: cell-based, murine
# Method: as §3
# [11] = test system: Ba/F3 KIT D816V; assay: Induction of apoptosis, isogenic Ba/F3 model; assay type: cell-based, murine
# Method: as §3
# [12] = test system: Ba/F3 KIT D816F; assay: Induction of apoptosis, isogenic Ba/F3 model; assay type: cell-based, murine; conditions: for pIC50: Mus musculus, BaF3
# Method: as §3
# [13] = test system: Ba/F3 FLT3 WT; assay: Induction of apoptosis, isogenic Ba/F3 model; assay type: cell-based, murine; conditions: for pIC50: Mus musculus, BaF3
# Method: as §3
# [14] = test system: Ba/F3 KIT D816Y; assay: Induction of apoptosis, isogenic Ba/F3 model; assay type: cell-based, murine; conditions: for pIC50: Mus musculus, BaF3
# Method: as §3
# [15] = test system: HMC1.1, HMC1.2, GIST882 and GIST48 cells; assay: induction of apoptosis in imatinib-resistance cell models; assay type: cell-based, human; conditions: HMC1.1/HMC1.2 and GIST882/GIST48; irrespective of the sensitivity profile towards TKI
# Source text: We tested this theory using two cell models comparing primary TK-sensitive mutations with secondary TK-insensitive mutations: The first model consists of a mast cell leukemia cell line (HMC1.1), which harbors an imatinib-sensitive KIT V560G mutation – and a derivative sister cell line (HMC1.2), which is characterized by a secondary activation loop KIT D816V mutation, rendering the cells insensitive towards imatinib. Additionally we tested the GIST solid tumor cell line GIST882 (harboring an imatinib-sensitive KIT K642E mutation) with a second cell line, which was established from a patient with relapsing GIST under imatinib therapy (GIST48). This cell line harbors a primary homozygous juxtamembrane KIT mutation (V560D) plus a secondary heterozygous imatinib-insensitive activation loop mutation (D820A).
# Supplementary file 1476-4598-12-46-S3.tiff: Additional file 3: Figure S2 PI3K/MTOR inhibition in imatinib-resistance models. Dual PI3K/MTOR inhibition is effective in tyrosine kinase inhibitor-resistant cell models. […] Dose-effect plots are provided indicating sensitivity profiles of both dual PI3K/MTOR inhibitors that are independent of the sensitivity patterns for imatinib. Linear regression analyses to calculate IC50 estimates are provided for all cell lines. […]
# [16] = Mus musculus, BaF3, not reached = > 5 000 nM
SMILES,pIC50 [1],viability at 0.01 µM [1] [%],viability at 0.1 µM [1] [%],phosphorylation of AKT (immunoblot) [2],Induction of apoptosis At 1000 nM (% apopt.) [5] [%],Induction of apoptosis At 5000 nM (% apopt.) [5] [%],Induction of apoptosis At 1000 nM (% apopt.) [6] [%],Induction of apoptosis At 5000 nM (% apopt.) [6] [%],Induction of apoptosis At 1000 nM (% apopt.) [7] [%],Induction of apoptosis At 5000 nM (% apopt.) [7] [%],Induction of apoptosis At 1000 nM (% apopt.) [8] [%],Induction of apoptosis At 5000 nM (% apopt.) [8] [%],Induction of apoptosis At 1000 nM (% apopt.) [9] [%],Induction of apoptosis At 5000 nM (% apopt.) [9] [%],pIC50 [9],Induction of apoptosis At 1000 nM (% apopt.) [10] [%],Induction of apoptosis At 5000 nM (% apopt.) [10] [%],Induction of apoptosis At 1000 nM (% apopt.) [11] [%],Induction of apoptosis At 5000 nM (% apopt.) [11] [%],Induction of apoptosis At 1000 nM (% apopt.) [12] [%],other results
Cn1c(=O)n(-c2ccc(C(C)(C)C#N)cc2)c2c3cc(-c4cnc5ccccc5c4)ccc3ncc21 [NVP-BEZ235],8.05,43,47,potently suppressed phosphorylation of AKT at Ser473 as well as Thr308,19,28,38,39,3,6,17,16,19,27,< 5.00,19,22,4,23,40,sub-G1 ([3]; 1000 nM): 19%; sub-G1 ([3]; 10 000 nM): 35%; sub-G1 ([4]; 1000 nM): 13%; sub-G1 ([4]; 10 000 nM): 17%; Induction of apoptosis IC50 ([5]; not reached = > 5 000 nM): Not reached; Induction of apoptosis IC50 ([6]; not reached = > 5 000 nM): failed to achieve IC50; also recorded: Not reached; Induction of apoptosis IC50 ([7]; not reached = > 5 000 nM): Not reached*; Induction of apoptosis IC50 ([8]; not reached = > 5 000 nM): Not reached; Induction of apoptosis IC50 ([10]; not reached = > 5 000 nM): Not reached; Induction of apoptosis IC50 ([11]; not reached = > 5 000 nM): Not reached; Induction of apoptosis At 5000 nM (% apopt.) [12]: 87%; pIC50 [12]: 5.91; Induction of apoptosis At 1000 nM (% apopt.) [13]: 38%; Induction of apoptosis At 5000 nM (% apopt.) [13]: 40%; pIC50 [13]: 5.08; Induction of apoptosis At 1000 nM (% apopt.) [14]: 5%; Induction of apoptosis At 5000 nM (% apopt.) [14]: 73%; pIC50 [14]: 5.87; induction of apoptosis [15]: potently induced apoptosis
COc1ccc(-c2ccc3ncc4c(c3c2)n(-c2ccc(N3CCNCC3)c(C(F)(F)F)c2)c(=O)n4C)cn1 [NVP-BGT226],7.05,110,38,potently suppressed phosphorylation of AKT at Ser473 as well as Thr308,33,98,56,97,7,99,26,98,38,98,5.97,18,99,7,99,87,"sub-G1 ([3]; 500 nM): 50%; sub-G1 ([4]; 500 nM): 41%; pIC50 [5, 16]: 5.97; pIC50 [6, 16]: 6.58; pIC50 [7, 16]: 5.74; pIC50 [8, 16]: 5.95; pIC50 [10, 16]: 5.92; pIC50 [11, 16]: 5.75; Induction of apoptosis At 5000 nM (% apopt.) [12]: 89%; pIC50 [12]: 6.59; Induction of apoptosis At 1000 nM (% apopt.) [13]: 41%; Induction of apoptosis At 5000 nM (% apopt.) [13]: 99%; pIC50 [13]: 6.46; Induction of apoptosis At 1000 nM (% apopt.) [14]: 89%; Induction of apoptosis At 5000 nM (% apopt.) [14]: 96%; pIC50 [14]: 6.93; induction of apoptosis [15]: potently induced apoptosis"
